# Measured values published in PubChem BioAssay AID1963829 (Molecular Pharmacology Branch, DTP, NCI, 2024).
# Tested on: 935938-334-R-J1-PDC complex spheroid viability
# Assay: Anticancer human tumor 935938-334-R-J1-PDC patient-derived small intestine adenocarcinoma cell line growth inhibition [POLQ]
# Conditions: for IC50: curve of first compound; for viability, T/C: stronger effect = lower value
# In short: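 Patient-derived tumour cells were co-cultured with HUVEC and mesenchymal stem cells as multicellular spheroids at 37 °C. They were treated with POLQ inhibitors (novobiocin, ART-558, RP6685) alone or combined with other agents. Top concentrations were at or near clinical Cmax (otherwise 10 microM; SN-38 at 1 microM), decreasing in half-log steps.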
# 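Further: spheroids exposed to drugs for seven days before viability read.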
# 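Wherever viability, T/C is given: 100% = DMSO vehicle control wells.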
structure (smiles),measurement,setting,value
COc1ccc([C@@H](O)c2cc(-c3ncnc4cc(N5CCOCC5)ccc34)c(F)cc2Cl)nn1 + COC1C(OC(N)=O)C(O)C(Oc2ccc3c(O)c(NC(=O)c4ccc(O)c(CC=C(C)C)c4)c(=O)oc3c2C)OC1(C)C,IC50,second compound 0.0316 µM,5.47 µM
same,IC50,second compound 0.1 µM,4.65 µM
same,IC50,second compound 0.316 µM,4.59 µM
same,IC50,second compound 1 µM,3.26 µM
same,IC50,second compound 3.16 µM,6.59 µM
same,IC50,second compound 10 µM,6.65 µM
same,"viability, T/C","second compound 0.0316 µM, first compound 0.0316 µM",96.2%
same,"viability, T/C","second compound 0.0316 µM, first compound 0.1 µM",131%
same,"viability, T/C","second compound 0.0316 µM, first compound 0.316 µM",106%
same,"viability, T/C","second compound 0.0316 µM, first compound 1 µM",76.4%
same,"viability, T/C","second compound 0.0316 µM, first compound 3.16 µM",67.5%
same,"viability, T/C","second compound 0.0316 µM, first compound 10 µM",36.3%
same,"viability, T/C","second compound 0.1 µM, first compound 0.0316 µM",111%
same,"viability, T/C","second compound 0.1 µM, first compound 0.1 µM",106%
same,"viability, T/C","second compound 0.1 µM, first compound 0.316 µM",75%
same,"viability, T/C","second compound 0.1 µM, first compound 1 µM",89.2%
same,"viability, T/C","second compound 0.1 µM, first compound 3.16 µM",64.4%
same,"viability, T/C","second compound 0.1 µM, first compound 10 µM",26.6%
same,"viability, T/C","second compound 0.316 µM, first compound 0.0316 µM",102%
same,"viability, T/C","second compound 0.316 µM, first compound 0.1 µM",103%
same,"viability, T/C","second compound 0.316 µM, first compound 0.316 µM",98.2%
same,"viability, T/C","second compound 0.316 µM, first compound 1 µM",59.3%
same,"viability, T/C","second compound 0.316 µM, first compound 3.16 µM",66.3%
same,"viability, T/C","second compound 0.316 µM, first compound 10 µM",35.1%
same,"viability, T/C","second compound 1 µM, first compound 0.0316 µM",113%
same,"viability, T/C","second compound 1 µM, first compound 0.1 µM",125%
same,"viability, T/C","second compound 1 µM, first compound 0.316 µM",111%
same,"viability, T/C","second compound 1 µM, first compound 1 µM",85.2%
same,"viability, T/C","second compound 1 µM, first compound 3.16 µM",51.6%
same,"viability, T/C","second compound 1 µM, first compound 10 µM",33.9%
same,"viability, T/C","second compound 3.16 µM, first compound 0.0316 µM",115%
same,"viability, T/C","second compound 3.16 µM, first compound 0.1 µM",97.8%
same,"viability, T/C","second compound 3.16 µM, first compound 0.316 µM",108%
same,"viability, T/C","second compound 3.16 µM, first compound 1 µM",81.4%
same,"viability, T/C","second compound 3.16 µM, first compound 3.16 µM",73%
same,"viability, T/C","second compound 3.16 µM, first compound 10 µM",38.1%
same,"viability, T/C","second compound 10 µM, first compound 0.0316 µM",95.8%
same,"viability, T/C","second compound 10 µM, first compound 0.1 µM",72.4%
same,"viability, T/C","second compound 10 µM, first compound 0.316 µM",96.4%
same,"viability, T/C","second compound 10 µM, first compound 1 µM",70.4%
same,"viability, T/C","second compound 10 µM, first compound 3.16 µM",80%
same,"viability, T/C","second compound 10 µM, first compound 10 µM",34.8%
